Key:
[1] = tested on: Mino cells; test: Inhibitory activity on Mino cell proliferation (MTS); type: cell-based; conditions: Homo sapiens, 168 h incubation
Outline: (§1)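 Cells seeded at 10000/well, treated with compounds from 1000 nM (4-fold, 8 points) for 72 h (OCI-LY10) or 168 h (Mino) at 37° C. MTS added for 2 h, stopped with SDS, absorbance read at 490 and 650 nm; IC50 from dose-response fit.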

[2] = tested on: OCI-LY10 cells; test: Inhibitory activity on OCI-LY10 cell proliferation (MTS); type: cell-based; conditions: Homo sapiens, 72 h
Outline: as §1

[3] = molecular target: T1, BTK (Homo sapiens, UniProt Q06187); test: BTK degradation activity test in Mino cells; type: cell-based; conditions: 16 h incubation, Western blot or Elisa
T1 construct: endogenous in cells; host or cells: Mino cells
Outline: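 DC50 derived by curve fitting of BTK degradation rates versus untreated control across compound concentrations. Mino cells were exposed for 16 h; BTK levels in lysates, normalised via BCA protein, measured by Western blot or ELISA.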

[4] = Stability of compounds in human liver microsome; type: in vitro ADME; conditions: human liver microsomes, NADPH, 37° C., sampling 0-120 min; read-out: Human liver microsome T1/2
Procedure: Compound to be tested: the compound to be tested (1 mg) was dissolved in DMSO (10 mL) to formulate to 0.1 mg/mL.
Internal standard compound: the internal standard compound (1 mg) was dissolved in DMSO (10 mL), 10 μL was taken and diluted to 10 mL to formulate to 100 ng/mL.
NADPH solution: NADPH (2.08 mg) was dissolved in PBS (50 μL) buffer to formulate to 50 mM.
Under the condition of ice bath, 1 mg of human liver microparticles was add to PBS (1 mL) buffer, then NADPH (20 μL) was added, and incubated at 37° C. for 5 min. 10 μL of the compound to be tested was added, and then samples were taken at 0, 15, 30, 60 and 120 min respectively. 10 μL of the solution was taken with a pipette each time and added to 490 μL of the solution containing the internal standard compound. The resulting solution was vortexed and then placed on ice, and then sampling at another time point continues. All samples were centrifuged at 10,000 rpm for 10 min, and the supernatant was taken for LC/MS testing. The metabolism of the compound in liver microsomes was calculated based on the peak area.

[5] = Mouse absorption test (pharmacokinetic properties in mice); type: in vivo; conditions: intragastric, 100 mg/kg
Procedure: […] The blood collection time points for intragastric administration were 0.25, 0.5, 1, 2, 4, 6, 8, and 24 h. 0.5 mL of blood was taken with a capillary tube from the orbit, and placed in an EP tube containing EDTA anticoagulant. The EP tube was shaken gently for mixing uniformly, and centrifuged at 3500 rpm and 4° C. for 10 min. The supernatant, i.e., plasma, was taken. Analysis was performed using LC-MS/MS.

T1 sequence (Q06187 whole entry): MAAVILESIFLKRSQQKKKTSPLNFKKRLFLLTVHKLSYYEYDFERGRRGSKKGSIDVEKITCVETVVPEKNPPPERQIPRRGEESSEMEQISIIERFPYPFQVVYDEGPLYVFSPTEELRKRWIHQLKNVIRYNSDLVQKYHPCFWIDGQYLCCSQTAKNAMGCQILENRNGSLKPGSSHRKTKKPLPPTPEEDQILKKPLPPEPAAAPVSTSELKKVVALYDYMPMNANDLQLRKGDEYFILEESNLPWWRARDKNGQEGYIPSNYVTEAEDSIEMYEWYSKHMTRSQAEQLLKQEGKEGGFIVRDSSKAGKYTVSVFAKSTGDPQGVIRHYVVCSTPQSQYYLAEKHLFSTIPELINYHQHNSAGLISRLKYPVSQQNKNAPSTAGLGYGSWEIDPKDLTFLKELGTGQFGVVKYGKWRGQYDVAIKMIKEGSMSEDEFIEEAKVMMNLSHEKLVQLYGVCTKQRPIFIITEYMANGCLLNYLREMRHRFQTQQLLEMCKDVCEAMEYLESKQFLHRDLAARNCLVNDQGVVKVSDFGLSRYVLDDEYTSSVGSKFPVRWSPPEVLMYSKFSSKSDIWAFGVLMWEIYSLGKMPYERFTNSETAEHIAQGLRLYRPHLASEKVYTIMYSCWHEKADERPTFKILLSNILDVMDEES

Row | Compound | IC50 [1] [nM] | IC50 [2] [nM] | DC50 [3] [nM] | half-life at 0.97 µg/mL [4] [min] | DNAUC ([5]; DNAUC = AUC/Dose) [ng/ml*h/mpk] | Cmax ([5]; mouse, plasma, po) [ng/mL]
1 | NC(=O)c1nnc(N2CCC[C@@H](N3C(=O)CCC3=O)C2)nc1Nc1ccc(C2CCN(CC3CCN(c4ccc5c(c4)C(=O)N(C4CCC(=O)NC4=O)C5=O)C3)CC2)cc1 (stereo partly drawn) [Compound 136, 5-((4-(1-((1-(2-(2,6-dioxopiperidin-3-yl)-1,3-dioxoisoindolin-5-yl)pyrrolidin-3-yl)methyl)piperidin-4-yl)phenyl)amino)-3-((R)-3-(2,5-dioxopyrrolidin-1-yl)piperidin-1-yl)-1,2,4-triazin-6-carboxamide] | 1.61 | 0.79 | < 1 | 24 | – | –
2 | CN1CCN([C@@H]2CCCN(c3cnc(C(N)=O)c(Nc4ccc(C5CCN(CC6CCN(c7ccc8c(c7)C(=O)N(C7CCC(=O)NC7=O)C8=O)CC6)CC5)cc4)n3)C2)C1=O (stereo partly drawn) [Compound b] | – | – | – | 5.18 | 631 | 4030
3 | COc1ccc(N2CCC(CN3CCN(c4ccc(Nc5nc(N6CCC[C@@H](N7CCN(C)C7=O)C6)nnc5C(N)=O)cc4F)CC3)C2)cc1N1CCC(=O)NC1=O (stereo partly drawn) [Compound 258, 5-((4-(4-((1-(3-(2,4-dioxotetrahydropyrimidin-1(2H)-yl)-4-methoxyphenyl)pyrrolidin-3-yl)methyl)piperazin-1-yl)-3-fluorophenyl)amino)-3-((R)-3-(3-methyl-2-oxoimidazolidin-1-yl)piperidin-1-yl)-1,2,4-triazin-6-carboxamide] | 5.31 | 0.96 | < 1 | > 30 | – | –
4 | NC(=O)c1nnc(N2CCC[C@@H](N3C(=O)CCC3=O)C2)nc1Nc1ccc(C2CCN(CC3CCN(c4ccc5c(c4)C(=O)N(C4CCC(=O)NC4=O)C5=O)CC3)CC2)cc1 (stereo partly drawn) [Compound 135, 5-((4-(1-((1-(2-(2,6-dioxopiperidin-3-yl)-1,3-dioxoisoindolin-5-yl)piperidin-4-yl)methyl)piperidin-4-yl)phenyl)amino)-3-((R)-3-(2,5-dioxopyrrolidin-1-yl)piperidin-1-yl)-1,2,4-triazin-6-carboxamide] | 1.36 | 0.11 | < 1 | 25 | – | –
5 | CN1CCN([C@@H]2CCCN(c3nnc(C(N)=O)c(Nc4ccc(N5CCN(CC6CCN(c7ccc(N8CCC(=O)NC8=O)nc7)CC6)CC5)c(F)c4)n3)C2)C1=O [Compound 195, (R)-5-((4-(4-((1-(6-(2,4-dioxotetrahydropyrimidin-1(2H)-yl)pyridin-3-yl)piperidin-4-yl)methyl)piperazin-1-yl)-3-fluorophenyl)amino)-3-(3-(3-methyl-2-oxoimidazolidin-1-yl)piperidin-1-yl)-1,2,4-triazin-6-carboxamide] | 8.53 | 1.79 | < 1 | > 30 | – | –
6 | CN1CCN([C@@H]2CCCN(c3nnc(C(N)=O)c(Nc4ccc(N5CCN(CC6CCN(c7ccc(C(=O)N[C@H]8CCC(=O)NC8=O)nc7)CC6)CC5)c(F)c4)n3)C2)C1=O [Compound 171, 5-((4-(4-((1-(6-(((S)-2,6-dioxopiperidin-3-yl)carbamoyl)pyridin-3-yl)piperidin-4-yl)methyl)piperazin-1-yl)-3-fluorophenyl)amino)-3-((R)-3-(3-methyl-2-oxoimidazolidin-1-yl)piperidin-1-yl)-1,2,4-triazin-6-carboxamide] | 3.43 | 2.65 | < 1 | > 30 | – | –
7 | CN1CCN([C@@H]2CCCN(c3nnc(C(N)=O)c(Nc4ccc(C5CCN(CC6CCN(c7cc8c(cc7F)C(=O)N(C7CCC(=O)NC7=O)C8=O)C6)CC5)cc4)n3)C2)C1=O (stereo partly drawn) [Compound 126, 5-((4-(1-((1-(2-(2,6-dioxopiperidin-3-yl)-6-fluoro-1,3-dioxoisoindolin-5-yl)pyrrolidin-3-yl)methyl)piperidin-4-yl)phenyl)amino)-3-((R)-3-(3-methyl-2-oxoimidazolin-1-yl)piperidin-1-yl)-1,2,4-triazin-6-carboxamide] | 2.99 | < 0.06 | < 1 | 55.6 | – | –
8 | CN1CCN([C@@H]2CCCN(c3nnc(C(N)=O)c(Nc4ccc(N5CCN(CC6CCN(c7ccc(F)c(N8CCC(=O)NC8=O)c7)C6)CC5)c(F)c4)n3)C2)C1=O (stereo partly drawn) [Compound 256, 5-((4-(4-((1-(3-(2,4-dioxotetrahydropyrimidin-1(2H)-yl)-4-fluorophenyl)pyrrolidin-3-yl)methyl)piperazin-1-yl)-3-fluorophenyl)amino)-3-((R)-3-(3-methyl-2-oxoimidazolidin-1-yl)piperidin-1-yl)-1,2,4-triazin-6-carboxamide] | 1.87 | 1.6 | < 1 | > 30 | – | –
9 | NC(=O)c1nnc(N2CCC[C@@H](N3CCN(CC(F)(F)F)C3=O)C2)nc1Nc1ccc(C2CCN(CC3CCN(c4ccc5c(c4)C(=O)N(C4CCC(=O)NC4=O)C5=O)C3)CC2)cc1 (stereo partly drawn) [Compound 140, 5-((4-(1-((1-(2-(2,6-dioxopiperidin-3-yl)-1,3-dioxoisoindolin-5-yl)pyrrolidin-3-yl)methyl)piperidin-4-yl)phenyl)amino)-3-((R)-3-(2-oxo-3-(2,2,2-trifluoroethyl)imidazolin-1-yl)piperidin-1-yl)-1,2,4-triazin-6-carboxamide] | 3.46 | 0.47 | < 1 | 26.3 | – | –
10 | CN1C(=O)N([C@@H]2CCCN(c3nnc(C(N)=O)c(Nc4ccc(C5CCN(CC6CCN(c7ccc8c(c7)C(=O)N(C7CCC(=O)NC7=O)C8=O)C6)CC5)cc4)n3)C2)C(=O)C12CC2 (stereo partly drawn) [Compound 137, 5-((4-(1-((1-(2-(2,6-dioxopiperidin-3-yl)-1,3-dioxoisoindolin-5-yl)pyrrolidin-3-yl)methyl)piperidin-4-yl)phenyl)amino)-3-((R)-3-(4-methyl-5,7-dioxo-4,6-diazaspiro[2.4]heptan-6-yl)piperidin-1-yl)-1,2,4-triazin-6-carboxamide] | 3.92 | 0.25 | < 1 | 20 | – | –
11 | CN1CCN([C@@H]2CCCN(c3nnc(C(N)=O)c(Nc4ccc(N5CCN(CC6CCN(C(=O)c7ccc(F)c(N8CCC(=O)NC8=O)c7)C6)CC5)c(F)c4)n3)C2)C1=O (stereo partly drawn) [Compound 148, 5-((4-(4-((1-(3-(2,4-dioxotetrahydropyrimidin-1(2H)-yl)-4-fluorobenzoyl)pyrrolidin-3-yl)methyl)piperazin-1-yl)-3-fluorophenyl)amino)-3-((R)-3-(3-methyl-2-oxoimidazolin-1-yl)piperidin-1-yl)-1,2,4-triazin-6-carboxamide] | 7.79 | 3.21 | < 1 | > 30 | – | –
12 | CN1CCN([C@@H]2CCCN(c3nnc(C(N)=O)c(Nc4ccc(N5CCN(CC6CCN(c7ccc8c(c7)C(=O)N(C7CCC(=O)NC7=O)C8=O)C6)CC5)c(Cl)c4)n3)C2)C1=O (stereo partly drawn) [Compound 133, 5-((3-chloro-4-(4-((1-(2-(2,6-dioxopiperidin-3-yl)-1,3-dioxoisoindolin-5-yl)pyrrolidin-3-yl)methyl)piperazin-1-yl)phenyl)amino)-3-((R)-3-(3-methyl-2-oxoimidazolin-1-yl)piperidin-1-yl)-1,2,4-triazin-6-carboxamide] | 3.91 | 0.43 | < 1 | 31.7 | – | –
13 | NC(=O)c1nnc(N2CC3CC(N4C(=O)c5ccccc5C4=O)C2C3)nc1Nc1ccc(C2CCN(CC3CCN(c4ccc5c(c4)C(=O)N(C4CCC(=O)NC4=O)C5=O)C3)CC2)cc1 (stereo not drawn) [Compound 144, 3-(6-(1,3-dioxoisoindolin-2-yl)-2-azabicyclo[2.2.1]heptan-2-yl)-5-((4-(1-((1-(2-(2,6-dioxopiperidin-3-yl)-1,3-dioxoisoindolin-5-yl)pyrrolidin-3-yl)methyl)piperidin-4-yl)phenyl)amino)-1,2,4-triazin-6-carboxamide] | 3.49 | 3.49 | < 1 | 146 | – | –

— US20240360146A1, “BRUTON'S TYROSINE KINASE AND MUTANT DEGRADER, COMPOSITION AND APPLICATION THEREOF” (HANGZHOU HEALZEN THERAPEUTICS CO., LTD., priority 2021, published 2024)
